From patent publication US20250195551A1 (L4 BIO LLC, priority 2023, published 2025)

Assays:
[1] = Excipient compatibility study; format: physicochemical; settings: for Total Impurities % (excluding API impurities %) / Chromatographic purity by HPLC (Assay): 40° C./75% RH
Method: An excipient compatibility study was initiated with selected excipients ranging from oils to surfactants based on equilibrium solubility results (Table 2). […] After solutions were prepared using a hand-held homogenizer (Model IKAT10 Ultra-Turrax), each excipient sample was aliquoted in amber vials, approximately 10% water was added in each excipient aliquot, and bench scale gel stripe OET-004037 was also made and added in a separate set of aliquot samples at approximately 1:1 w/w.
All samples were stored at 40° C./75% relative humidity (RH) condition (Model: Lunaire environmental chamber) and tested by developmental reversed phase HPLC method for Assay/Related Substances at T=0, 2 weeks, and 1 month.

[2] = target: neuronal alpha-7-nicotinic receptor (Homo sapiens, UniProt P36544); settings: interaction with neuronal alpha-7-nicotinic receptor in humans; cited from earlier work
[3] = Pharmacokinetic profiles of Ivermectin B1a in Sprague Dawley rat plasma after IV and oral administration; format: in vivo, Sprague Dawley rats; settings: Ivermectin B1a in SD rat plasma; single IV 2 mg/kg; fasting; male
Method: Thirty-six male Sprague Dawley rats were randomly assigned into four groups, with nine male rats in each group. All animals in all groups are fasted overnight prior to the experimental date.
Blood samples were collected from 6 of 9 animals per group at 0.5, 1, 2, 3, 4, 6, 8, 24, 72, 120, 168 hours post-dose.

[4] = in Masester E8120, Sample: Control, T = 0
[5] = in Masester E8120, Sample: Control, T = 1 months
[6] = in Masester E8120, Sample: Control, T = 2 weeks
[7] = in Masester E8120, Sample: Gel Stripe (1:1 w/w), T = 1 months
[8] = in Masester E8120, Sample: Gel Stripe (1:1 w/w), T = 2 weeks
[9] = in Oleic acid, Sample: 10% water, T = 2 weeks
[10] = in Oleic acid, Sample: Control, T = 0
[11] = in Oleic acid, Sample: Control, T = 2 weeks
[12] = in Oleic acid, Sample: Gel Stripe (1:1 w/w), T = 2 weeks
[13] = in PEG 400, Sample: 10% water, T = 2 weeks
[14] = in PEG 400, Sample: Control, T = 0
[15] = in PEG 400, Sample: Control, T = 2 weeks
[16] = in PEG 400, Sample: Gel Stripe (1:1 w/w), T = 2 weeks
[17] = in Tween 80, Sample: 10% water, T = 1 months
[18] = in Tween 80, Sample: 10% water, T = 2 weeks
[19] = in Tween 80, Sample: Control, T = 0
[20] = in Tween 80, Sample: Control, T = 1 months
[21] = in Tween 80, Sample: Control, T = 2 weeks
[22] = in Tween 80, Sample: Gel Stripe (1:1 w/w), T = 1 months
[23] = in Tween 80, Sample: Gel Stripe (1:1 w/w), T = 2 weeks
[24] = in Vitamin E TPGS, Sample: 10% water, T = 1 months
[25] = in Vitamin E TPGS, Sample: 10% water, T = 2 weeks
[26] = in Vitamin E TPGS, Sample: Control, T = 0
[27] = in Vitamin E TPGS, Sample: Control, T = 1 months
[28] = in Vitamin E TPGS, Sample: Control, T = 2 weeks
[29] = in Vitamin E TPGS, Sample: Gel Stripe (1:1 w/w), T = 1 months
[30] = in Vitamin E TPGS, Sample: Gel Stripe (1:1 w/w), T = 2 weeks

neuronal alpha-7-nicotinic receptor, sequence (P36544 23-502): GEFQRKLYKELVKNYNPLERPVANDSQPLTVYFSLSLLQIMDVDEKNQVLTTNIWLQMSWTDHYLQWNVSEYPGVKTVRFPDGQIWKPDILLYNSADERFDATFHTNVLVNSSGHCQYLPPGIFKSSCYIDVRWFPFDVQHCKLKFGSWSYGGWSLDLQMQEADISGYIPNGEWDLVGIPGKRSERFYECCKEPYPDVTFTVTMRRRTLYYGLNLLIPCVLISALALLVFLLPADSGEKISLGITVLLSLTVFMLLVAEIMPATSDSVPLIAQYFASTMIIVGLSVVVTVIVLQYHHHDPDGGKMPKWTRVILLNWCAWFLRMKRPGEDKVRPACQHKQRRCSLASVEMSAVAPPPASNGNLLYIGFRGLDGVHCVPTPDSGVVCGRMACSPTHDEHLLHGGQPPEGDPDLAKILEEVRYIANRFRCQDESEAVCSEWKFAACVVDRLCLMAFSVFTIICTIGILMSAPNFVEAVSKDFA

With ivermectin the “Total Impurities % (excluding API impurities %)” value (from here on “Total Impurities %”) ([1]; in Masester E8120, Sample: 10% water, T = 2 weeks) was 2.27 % adjusted area, the “Chromatographic purity by HPLC (Assay)” value [1, 4] was 97.58 % area and the “Total Impurities %” value [1, 4] was 0.17 % adjusted area. The “Chromatographic purity by HPLC (Assay)” value [1, 5] was 97.06 % area, the “Total Impurities %” value [1, 5] was 0.45 % adjusted area and the “Chromatographic purity by HPLC (Assay)” value [1, 6] was 96.81 % area. The “Total Impurities %” value [1, 6] was 0.58 % adjusted area, the “Chromatographic purity by HPLC (Assay)” value [1, 7] was 97.31 % area and the “Total Impurities %” value [1, 7] was 0.18 % adjusted area. The “Chromatographic purity by HPLC (Assay)” value [1, 8] was 97.35 % area, the “Total Impurities %” value [1, 8] was 0.11 % adjusted area and the “Chromatographic purity by HPLC (Assay)” value [1, 9] was 86.02 % area. The “Total Impurities %” value [1, 9] was 9.89 % adjusted area, the “Chromatographic purity by HPLC (Assay)” value [1, 10] was 99.60 % area and the “Total Impurities %” value [1, 10] was “<LOQ”. The “Chromatographic purity by HPLC (Assay)” value [1, 11] was 83.55 % area, the “Total Impurities %” value [1, 11] was 17.27 % adjusted area and the “Chromatographic purity by HPLC (Assay)” value [1, 12] was 83.73 % area. The “Total Impurities %” value [1, 12] was 11.82 % adjusted area, the “Chromatographic purity by HPLC (Assay)” value [1, 13] was 94.35 % area and the “Total Impurities %” value [1, 13] was 3.15 % adjusted area. For the same substance, the “Chromatographic purity by HPLC (Assay)” value [1, 14] was 97.58 % area, the “Total Impurities %” value [1, 14] was 0.10 % adjusted area and the “Chromatographic purity by HPLC (Assay)” value [1, 15] was 89.36 % area. The “Total Impurities %” value [1, 15] was 8.54 % adjusted area, the “Chromatographic purity by HPLC (Assay)” value [1, 16] was 96.92 % area and the “Total Impurities %” value [1, 16] was 0.50 % adjusted area. The “Chromatographic purity by HPLC (Assay)” value [1, 17] was 91.18 % area, the “Total Impurities %” value [1, 17] was 6.94 % adjusted area and the “Chromatographic purity by HPLC (Assay)” value [1, 18] was 93.02 % area. For the same substance, the “Total Impurities %” value [1, 18] was 3.53 % adjusted area, the “Chromatographic purity by HPLC (Assay)” value [1, 19] was 97.53 % area and the “Total Impurities %” value [1, 19] was 0.16 % adjusted area. For the same substance, the “Chromatographic purity by HPLC (Assay)” value [1, 20] was 88.45 % area, the “Total Impurities %” value [1, 20] was 10.55 % adjusted area and the “Chromatographic purity by HPLC (Assay)” value [1, 21] was 91.87 % area. For the same substance, the “Total Impurities %” value [1, 21] was 4.86 % adjusted area, the “Chromatographic purity by HPLC (Assay)” value [1, 22] was 93.51 % area and the “Total Impurities %” value [1, 22] was 4.22 % adjusted area. The “Chromatographic purity by HPLC (Assay)” value [1, 23] was 93.97 % area, the “Total Impurities %” value [1, 23] was 2.43 % adjusted area and the “Chromatographic purity by HPLC (Assay)” value [1, 24] was 97.46 % area. For the same substance, the “Total Impurities %” value [1, 24] was “<LOQ”, the “Chromatographic purity by HPLC (Assay)” value [1, 25] was 96.99 % area and the “Total Impurities %” value [1, 25] was 0.42 % adjusted area. For the same substance, the “Chromatographic purity by HPLC (Assay)” value [1, 26] was 97.74 % area, the “Total Impurities %” value [1, 26] was “<LOQ” and the “Chromatographic purity by HPLC (Assay)” value [1, 27] was 97.37 % area. The “Total Impurities %” value [1, 27] was 0.11 % adjusted area, the “Chromatographic purity by HPLC (Assay)” value [1, 28] was 97.43 % area and the “Total Impurities %” value [1, 28] was “<LOQ”. For the same substance, the “Chromatographic purity by HPLC (Assay)” value [1, 29] was 97.74 % area, the “Total Impurities %” value [1, 29] was “<LOQ” and the “Chromatographic purity by HPLC (Assay)” value [1, 30] was 97.50 % area. For the same substance, the “Total Impurities %” value [1, 30] was “<LOQ”, the “Chemical compatibility with the API” value ([1]; oily vehicles including Maisine CC, fractionated coconut oil, and oleic acid) was “good chemical compatibility” and the EC50 [2] was roughly 30 µM. The “AUC(0-t)” value [3] was 8259.31 ± 1032.95 ng·h/mL, the “AUC(0-∞)” value [3] was 8273.53 ng·h/mL and the Cmax [3] was 1722.67 ng/mL. For the same substance, the “MRT(0-t)” value [3] was 10.58 h, the “MRT(0-∞)” value [3] was 10.81 h and the T1/2 [3] was 14.82 ± 0.72 h. For the same substance, the Tmax [3] was 0.50 h.
